Here are results for twelve molecules from PubChem BioAssay AID328 (DTP/NCI, 2004).

In the test the test system is BDF1 mice, P388 leukemia ip, median survival T/C. Put plainly: NCI In Vivo Anticancer Drug Screen. Data for tumor model P388 Leukemia (intraperitoneal) in B6D2F1 (BDF1) mice. As to conditions: endpoint: median survival time, higher = longer survival. The essentials: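 Each value expresses how treatment altered survival: treated-mouse outcome over vehicle-mouse outcome, both groups bearing the transplanted tumour.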

[1] abbreviates: dose: 25.0 mg/kg/injection, schedule: Q01DX009 (ip), vehicle: saline with Tween-80.
[2] abbreviates: dose: 50.0 mg/kg/injection, schedule: Q01DX009 (ip), vehicle: saline with Tween-80.
The mark [3] stands for this setting: dose: 100.0 mg/kg/injection, schedule: Q01DX009 (ip), vehicle: saline with Tween-80.

Values joined by “and” are separate entries in the source; they are usually repeats but may differ in a detail not shown here. Equal values may be shown once. Toxic doses and inconclusive results are not listed.

Regarding `CC1OC(O[C@@H]2C=C3CC[C@@H]4[C@H](CC[C@]5(C)[C@@H](c6ccc(=O)oc6)CC[C@]45O)[C@@]3(C)CC2)C(O)C(O)C1O` (stereo not given in full), the T/C (dose: 2.5 mg/kg/injection, schedule: Q01DX010 (ip), vehicle: carboxymethylcellulose (CMC)) is 105 % of control and the T/C (dose: 5.0 mg/kg/injection, schedule: Q01DX010 (ip), vehicle: carboxymethylcellulose (CMC)) is 105 % of control.
With `CC1CC(C)(O)CC(C(O)CC2CC(=O)NC(=O)C2)C1=O` (stereo not given), the T/C is 181 % of control (dose: 0.4 mg/kg/injection, schedule: Q01DX010 (ip), vehicle: saline); 111 % of control (dose: 0.5 mg/kg/injection, schedule: Q04DX003 (ip), vehicle: saline); 90 % of control (dose: 0.8 mg/kg/injection, schedule: Q01DX010 (ip), vehicle: saline); 123 % of control (dose: 1.2 mg/kg/injection, schedule: Q04DX003 (ip), vehicle: saline); 118 % of control (dose: 1.3 mg/kg/injection, schedule: Q01DX001 (sc), vehicle: saline); 161 % of control (dose: 2.0 mg/kg/injection, schedule: Q04DX003 (ip), vehicle: saline). Moreover, the T/C (dose: 2.16 mg/kg/injection, schedule: Q01DX001 (ip), vehicle: saline) was 116 % of control; the T/C (dose: 2.16 mg/kg/injection, schedule: Q01DX001 (sc), vehicle: saline) was 119 % of control; the T/C (dose: 3.33 mg/kg/injection, schedule: Q04DX003 (ip), vehicle: saline) is 92 % of control; the T/C (dose: 3.6 mg/kg/injection, schedule: Q01DX001 (ip), vehicle: saline) was 114 % of control; the T/C (dose: 3.6 mg/kg/injection, schedule: Q01DX001 (sc), vehicle: saline) was 118 % of control; the T/C (dose: 3.6 mg/kg/injection, schedule: Q04DX003 (ip), vehicle: saline) is 107 % of control. Also, the T/C reads like this: (dose: 6.0 mg/kg/injection, schedule: Q01DX001 (ip), vehicle: saline) 116 % of control; (dose: 6.0 mg/kg/injection, schedule: Q01DX001 (sc), vehicle: saline) 113 % of control; (dose: 10.0 mg/kg/injection, schedule: Q01DX001 (sc), vehicle: saline) 113 % of control; (dose: 288.0 micrograms/kg/injection, schedule: Q01DX009 (ip), vehicle: saline) 155 % of control and 170 % of control; (dose: 467.0 micrograms/kg/injection, schedule: Q04DX003 (sc), vehicle: saline) 116 % of control; (dose: 480.0 micrograms/kg/injection, schedule: Q01DX009 (ip), vehicle: saline) 177 % of control. Besides, the T/C (dose: 778.0 micrograms/kg/injection, schedule: Q04DX003 (ip), vehicle: saline) was 119 % of control; the T/C (dose: 778.0 micrograms/kg/injection, schedule: Q04DX003 (sc), vehicle: saline) was 123 % of control; the T/C (dose: 800.0 micrograms/kg/injection, schedule: Q01DX009 (ip), vehicle: saline) was 109 % of control; the T/C (dose: 3600.0 micrograms/kg/injection, schedule: Q04DX003 (ip), vehicle: saline) was 92 % of control.
For the molecule `O=C1C(Cl)=C(Cl)C(=O)c2ccccc21`, the T/C reads like this: (dose: 6.25 mg/kg/injection, schedule: Q01DX009 (ip), vehicle: Klucel (hydroxypropylcellulose) (HPC)) 115 % of control; (dose: 12.5 mg/kg/injection, schedule: Q01DX009 (ip), vehicle: Klucel (hydroxypropylcellulose) (HPC)) 115 % of control; (dose: 25.0 mg/kg/injection, schedule: Q01DX009 (ip), vehicle: Klucel (hydroxypropylcellulose) (HPC)) 112 % of control.
Regarding `O=C/C=C/c1ccc([N+](=O)[O-])cc1`, the T/C runs as follows: under setting [1], 104 % of control; under setting [2], 108 % of control; under setting [3], 91 % of control.
Regarding `CNC(=N)c1ccc(NC(=N)c2ccc(NC(=N)c3ccc(NC(=O)Nc4ccc(C(=N)NC)cc4)cc3)cc2)cc1`, the T/C was 122 % of control (dose: 1.1 mg/kg/injection, schedule: Q04DX003 (ip), vehicle: saline); 170 % of control (dose: 2.4 mg/kg/injection, schedule: Q01DX009 (ip), vehicle: saline); 187 % of control (dose: 3.6 mg/kg/injection, schedule: Q01DX009 (ip), vehicle: saline); 154 % of control and 157 % of control (dose: 5.0 mg/kg/injection, schedule: Q01DX009 (ip), vehicle: saline); 195 % of control (dose: 5.3 mg/kg/injection, schedule: Q01DX009 (ip), vehicle: saline); 154 % of control (dose: 5.3 mg/kg/injection, schedule: Q04DX003 (ip), vehicle: saline). Moreover, the T/C reads like this: (dose: 6.25 mg/kg/injection, schedule: Q01DX009 (ip), vehicle: saline) 161 % of control; (dose: 8.0 mg/kg/injection, schedule: Q01DX009 (ip), vehicle: saline) 165 % of control; (dose: 12.0 mg/kg/injection, schedule: Q01DX009 (ip), vehicle: saline) 188 % of control; (dose: 12.0 mg/kg/injection, schedule: Q04DX003 (ip), vehicle: saline) 154 % of control; (dose: 12.5 mg/kg/injection, schedule: Q01DX009 (ip), vehicle: saline) 230 % of control; (dose: 18.0 mg/kg/injection, schedule: Q01DX009 (ip), vehicle: saline) 230 % of control. For the same molecule, the T/C by setting is: (dose: 18.0 mg/kg/injection, schedule: Q04DX003 (ip), vehicle: saline) 187 % of control; (dose: 25.0 mg/kg/injection, schedule: Q04DX003 (ip), vehicle: saline) 250 % of control.
Turning to `COC(=O)c1c(Cl)c(Cl)c(Cl)c(Cl)c1C(=O)O`, the T/C under setting [2] is 110 % of control.
As to `COC(=O)c1c2ccccc2cn1Cc1ccccc1`, the T/C reads like this: under setting [1], 89 % of control; under setting [2], 90 % of control and 93 % of control; under setting [3], 100 % of control; (dose: 200.0 mg/kg/injection, schedule: Q01DX009 (ip), vehicle: saline with Tween-80) 100 % of control.
`c1ccc(C2=NC(CCN3CCCCC3)(c3ccccc3)SC2CN2CCCCC2)cc1` (stereo not given): the T/C is, setting by setting: (dose: 50.0 mg/kg/injection, schedule: Q01DX005 (ip), vehicle: Klucel (hydroxypropylcellulose) (HPC)) 101 % of control; (dose: 100.0 mg/kg/injection, schedule: Q01DX005 (ip), vehicle: Klucel (hydroxypropylcellulose) (HPC)) 105 % of control; (dose: 200.0 mg/kg/injection, schedule: Q01DX005 (ip), vehicle: Klucel (hydroxypropylcellulose) (HPC)) 104 % of control.
As to `N=c1c2c(C(N)=O)cn(C3OC(CO)C(O)C3O)c2ncn1O` (stereo not given), the T/C (dose: 0.75 mg/kg/injection, schedule: Q01DX009 (ip), vehicle: saline with Tween-80) is 122 % of control; the T/C (dose: 1.5 mg/kg/injection, schedule: Q01DX009 (ip), vehicle: saline with Tween-80) is 154 % of control; the T/C (dose: 2.0 mg/kg/injection, schedule: Q01DX009 (ip), vehicle: saline with Tween-80) is 180 % of control; the T/C (dose: 2.0 mg/kg/injection, schedule: Q04DX003 (ip), vehicle: saline with Tween-80) was 122 % of control; the T/C (dose: 2.9 mg/kg/injection, schedule: Q04DX003 (ip), vehicle: saline with Tween-80) is 160 % of control; the T/C (dose: 4.4 mg/kg/injection, schedule: Q04DX003 (ip), vehicle: saline with Tween-80) is 117 % of control. In addition, the T/C is, setting by setting: (dose: 6.7 mg/kg/injection, schedule: Q04DX003 (ip), vehicle: saline with Tween-80) 166 % of control; (dose: 10.0 mg/kg/injection, schedule: Q04DX003 (ip), vehicle: saline with Tween-80) 190 % of control; (dose: 15.0 mg/kg/injection, schedule: Q04DX003 (ip), vehicle: saline with Tween-80) 123 % of control.
For `COc1ccc(C2=CCCC2)cc1`, the T/C is 108 % of control (dose: 100.0 mg/kg/injection, schedule: Q04DX003 (ip), vehicle: Klucel (hydroxypropylcellulose) (HPC)); 95 % of control (dose: 200.0 mg/kg/injection, schedule: Q04DX003 (ip), vehicle: Klucel (hydroxypropylcellulose) (HPC)); 100 % of control (dose: 400.0 mg/kg/injection, schedule: Q04DX003 (ip), vehicle: Klucel (hydroxypropylcellulose) (HPC)).
`O=[N+]([O-])c1ccc(N/N=C2/C3CCC(C3)C2C(O)(C(F)(F)F)C(F)(F)F)c([N+](=O)[O-])c1` (stereo not given): the T/C (dose: 100.0 mg/kg/injection, schedule: Q04DX003 (ip), vehicle: saline with Tween-80) is 90 % of control; the T/C (dose: 200.0 mg/kg/injection, schedule: Q04DX003 (ip), vehicle: saline with Tween-80) is 90 % of control; the T/C (dose: 400.0 mg/kg/injection, schedule: Q04DX003 (ip), vehicle: saline with Tween-80) is 95 % of control.
In the case of `CN1CCc2ccccc2C1Cc1ccccc1NC(=O)c1sc2ccccc2c1Cl` (stereo not given), the T/C was 86 % of control (dose: 50.0 mg/kg/injection, schedule: Q01DX009 (ip), vehicle: Klucel (hydroxypropylcellulose) (HPC)); 91 % of control (dose: 100.0 mg/kg/injection, schedule: Q01DX009 (ip), vehicle: Klucel (hydroxypropylcellulose) (HPC)); 89 % of control (dose: 200.0 mg/kg/injection, schedule: Q01DX009 (ip), vehicle: Klucel (hydroxypropylcellulose) (HPC)).
